Values quoted from earlier work in paper PMC4955970, “Stable, synthetic analogs of diadenosine tetraphosphate inhibit rat and human P2X3 receptors and inflammatory pain” (Molecular Pain, 2016).

System: P2X3R
Design: method as in PMID 11821019
Details: EC50 and IC50 values taken from literature ref 41; cited from earlier work

| Compound | EC50/IC50 index |
| --- | --- |
| Nc1ncnc2c1ncn2[C@@H]1O[C@H](COP(=O)(O)OP(=O)(O)OP(=O)(O)O)[C@@H](O)[C@H]1O [ATP] | 15.13 |
| Nc1ncnc2c1ncn2[C@@H]1O[C@H](COP(=O)(O)OP(=O)(O)OP(=O)(O)OP(=O)(O)OC[C@H]2O[C@@H](n3cnc4c(N)ncnc43)[C@H](O)[C@@H]2O)[C@@H](O)[C@H]1O [Ap4A, P^1,P^4-diadenosine tetraphosphate] | 11.48 |
